Test results: patent publication US20030212144A1, “Method for inducing an estrous cycle and pregnancy in a female mammal” (priority 2003, published 2003)
No end group written: not given here.

Tests used:
old acyclic rats = conditions: cited from earlier work
serum prolactin = conditions: young and old rats; cited from earlier work
[1] = tested on: release of dihydroxyphenylacetic acid (DOPAC) from the hypothalamus; experiment: DOPAC release and content, static in vitro incubation of hypothalami, HPLC-EC; type: cell-based, Sprague-Dawley rats; conditions: for concentration of DOPAC in the hypothalamus at the end of the experiment: control 416±176; for DOPAC release: second incubation period; for DOPAC release after removal of deprenyl from the medium: third incubation period
Description: (§1) Four- to six-month old male Sprague-Dawley rats were obtained from Amitech (Omaha, Nebr.). These rats were housed in groups in air-conditioned (23±2° C.) and light controlled (lights on from 0700-1900 hours) animal rooms. They were provided rat chow and water ad libitum.
(§2) On the day of the experiment, the rats were sacrificed between 1200-1300 hrs. The brains were removed immediately and the hypothalami were dissected out using the following boundaries: the posterior part of the optic chiasmas the anterior limit, the anterior part of the mammillary bodies as the posterior limit, and the lateral hypothalamic sulci as the lateral limits (Palazzolo et al., Life Sci. 47: 2105-2109 (1990); Palazzolo et al., Life Sci. 51: 1797-1802 (1992)).
(§3) The hypothalami were weighed and divided into two halves along the sagittal plane and placed in a 12×75 mm glass tube containing 300 μl of Krebs-Ringer Henseleit (KRH) solution. The hypothalami were incubated in a static in vitro incubation system as described previously (Palazzolo et al., Life Sci. 47: 2105-2109 (1990); Palazzolo et al., Life Sci. 51: 1797-1802 (1992)). Briefly, the incubation system consisted of a plexiglass water bath, a magnetic circulator fin, and a thermostat coil. The bath was filled with distilled water and the thermostat was switched on at least an hour before the perfusion. The temperature in the water bath was maintained at 37° C. The magnetically controlled circulator fins stirred the water constantly to maintain a uniform temperature throughout the water bath. The incubation medium, KRH, consisted of 117 mM NaCl, 4.7 mM KCl, 1.2 mM MgSO4, 1.2 mM KH2PO4, 2.5 mM CaCl2, 24.8 mM NaHCO3, 11.1 mM glucose, 0.1 mg/ml ascorbic acid in 1 L of pyrogen free water. During the experiment, the incubation medium was supplied a mixture of 95% oxygen and 5% carbon dioxide constantly through gas inlet lines at a slow and steady rate to avoid turbulence. To stabilize the release of monoamines, each hypothalamus was preincubated in KRH for 60 min. Following this, the hypothalami were incubated for four 60-min periods as described below.
(§4) During the first incubation period, the hypothalami were incubated in KRH for 60 min to measure the basal release of monoamines and their metabolites. During the second incubation period, the hypothalami were incubated in KRH containing 0, 0.1 mM, 1.0 mM, or 10 mM of deprenyl. After this, the hypothalami were rinsed and incubated in KRH alone (without deprenyl) during the third incubation period to measure the residual effects, if any, from the pervious incubation period. In the final incubation period, the hypothalami were incubated with high K^+ KRH, which, had the same composition as the KRH except that it contained 60 mM KCl and 57 mM NaCl, to check the viability of the tissue. Hypothalami were rinsed with KRH in between incubations. After each incubation period, incubation medium was removed and 0.1 M HClO4 was added to it at the ratio of 25:1 (v/v) and was stored at −70° C. until analysis for neurotransmitters by HPLC-EC. At the end of the treatment period, the hypothalami were transferred to microsample vials containing 0.1 M HClO4 and were stored at −70° C. At the time of HPLC analysis, the hypothalami were homogenized in KRH and centrifuged at 1000 RPM for 15 min and the supernatant was used for the measurement of neurotransmitters.
(§5) The HPLC-EC system has been described before (Palazzolo et al., Life Sci. 47: 2105-2109 (1990); Palazzolo et al., Life Sci. 51: 1797-1802 (1992); ThyagaRajan, S.; Meites et al., Endocrinol. 136: 1103-1110 (1995)). Briefly, it consisted of an LC-4B electrochemical detector (Bioanalytical Systems, West Lafayette, Ind.); a phase II, 5 μm ODS reverse phase, C-18 column; a glassy carbon electrode, a C-R6A Chromatopac integrator, a CTO-6A column oven, and an LC-6A pump (Shimadzu, Columbia, Md.). […]

[2] = tested on: release of dopamine (DA) from the hypothalamus; experiment: dopamine release and content, static in vitro incubation of hypothalami, HPLC-EC; type: cell-based, Sprague-Dawley rats; conditions: for DA release after removal of deprenyl: third incubation period; for DA content of the hypothalami at the end of the experiment: p<0.05
Description: as §1, §2, §3, §4, §5

old male rats = conditions: cited from earlier work
[3] = tested on: release of norepinephrine (NE) from the hypothalamus; experiment: norepinephrine release and content, static in vitro incubation of hypothalami, HPLC-EC; type: cell-based, Sprague-Dawley rats; conditions: for content of NE in the hypothalami at the end of the experiment: control 1104±588
Description: as §1, §2, §3, §4, §5

[4] = tested on: release of 5-hydroxyindoleacetic acid (5-HIAA) from the hypothalamus; experiment: 5-HIAA release and content, static in vitro incubation of hypothalami, HPLC-EC; type: cell-based, Sprague-Dawley rats
Description: as §1, §2
The hypothalami were weighed and divided into two halves along the sagittal plane and placed in a 12×75 mm glass tube containing 300 μl of Krebs-Ringer Henseleit (KRH) solution. The hypothalami were incubated in a static in vitro incubation system as described previously (Palazzolo et al., Life Sci. 47: 2105-2109 (1990); Palazzolo et al., Life Sci. 51: 1797-1802 (1992)). Briefly, the incubation system consisted of a plexiglass water bath, a magnetic circulator fin, and a thermostat coil. The bath was filled with distilled water and the thermostat was switched on at least an hour before the perfusion. […]

[5] = tested on: release of serotonin (5-HT) from the hypothalamus; experiment: 5-HT release and content, static in vitro incubation of hypothalami, HPLC-EC; type: cell-based, Sprague-Dawley rats; conditions: for 5-HT release: second incubation period, control 41.0±21; for content of 5-HT at the end of the experiment: p<0.05
Description: as §1, §2, §3, §4, §5

[6] = tested on: retired racing female greyhounds; experiment: induction of heat in retired racing female greyhounds previously treated with testosterone; type: in vivo, greyhound (canine); conditions: oral in saline, seven animals, saline control 22%
Description: Retired racing female greyhounds that were previously treated with testosterone were used in the experiments. Nine animals were used in the control group, and seven animals each were used in the low dose (0.5 mg/kg body weight deprenyl) and the high dose (0.75 mg/kg body weight) groups. Control animals were treated with oral saline solution. Experimental, animals were treated with one of the two doses of deprenyl orally dissolved in saline.

[7] = tested on: carcinogen-induced mammary tumor; conditions: rats; cited from earlier work
greyhound bitches = conditions: Bruyette et al., personal communication; cited from earlier work

N[C@@H](Cc1ccc(O)c(O)c1)C(=O)O [1-dopa]
restoration of heat and the estrous cycle (old acyclic rats): restoration of heat and the estrous cycle

CC(C)NNC(=O)c1ccncc1 [Iproniazid, 4-pyridinecarboxyylic acid, 2-(1-methylethyl)hydrazine]
restoration of heat and the estrous cycle (old acyclic rats): reinstate the estrous cycle

C#CCN(C)C(C)Cc1ccccc1 (stereo not drawn) [deprenyl, phenethylamine, N, alpha-dimethyl-N-2-propynyl]
serum prolactin concentrations (serum prolactin): decreases serum prolactin concentrations
concentration of DOPAC in the hypothalamus at the end of the experiment ([1]; 0.1 mM deprenyl group): 290.0±110
DOPAC release ([1]; 0.1 mM deprenyl): did not produce any change
concentration of DOPAC in the hypothalamus at the end of the experiment ([1]; 1 mM deprenyl group, p<0.05): 86.8±34
DOPAC release ([1]; 1 mM deprenyl, pretreatment 267.7±46, p<0.01): 139.6±19
DOPAC release after removal of deprenyl from the medium ([1]; 1 mM group): remained low
concentration of DOPAC in the hypothalamus at the end of the experiment ([1]; 10 mM deprenyl group, p<0.05): 34.3±16
DOPAC release ([1]; 10 mM deprenyl, pretreatment 285.6±28, p<0.001): 68.9±20
DOPAC release after removal of deprenyl from the medium ([1]; 10 mM group): remained low
DOPAC release on stimulation with high potassium KRH ([1]; all the deprenyl-treated groups (0.1, 1, 10 mM)): did not produce any increase
DA release ([2]; 0.1 mM deprenyl, second incubation period, not significantly different from pretreatment): 125.1±49
DA release ([2]; 0.1 mM group, high K+ KRH, significant increase): 393.1±109
DA release after removal of deprenyl ([2]; 0.1 mM group): brought DA release to pretreatment levels
DA release ([2]; 1 mM deprenyl, second incubation period, pretreatment 42.9±6): 154.8±59
DA content of the hypothalami at the end of the experiment ([2]; 1 mM group compared to 0 mM group): significantly less
DA release ([2]; 1 mM group, high K+ KRH, significant increase): 106.8±27
DA release after removal of deprenyl ([2]; 1 mM group): brought DA release to pretreatment levels
DA release ([2]; 10 mM deprenyl, second incubation period): 197.7±63
DA content of the hypothalami at the end of the experiment ([2]; 10 mM group compared to 0 mM group): significantly less
DA release ([2]; 10 mM group, high potassium KRH, not statistically significant from pretreatment): 85.3±40
DA release after removal of deprenyl ([2]; 10 mM group): returned DA release to basal levels
sexual activity (old male rats): increase sexual activity
content of NE in the hypothalami at the end of the experiment ([3]; 0.1 mM deprenyl group): 743.3±179
NE release (Mean±S.E.) ([3]; 0.1 mM deprenyl, second incubation period (KRH+DEP), pretreatment 196.9±43, increase not significant): 252.3±48 pg/mg hypothalamus
NE release (Mean±S.E.) ([3]; 0.1 mM group, fourth period, high potassium KRH, p<0.05): 538.2±142 pg/mg hypothalamus
NE release (Mean±S.E.) ([3]; 0.1 mM group, third incubation period (KRH alone after deprenyl)): 185.1±42 pg/mg hypothalamus
content of NE in the hypothalami at the end of the experiment ([3]; 1 mM deprenyl group, p<0.05): 388.1±71
NE release (Mean±S.E.) ([3]; 1 mM group, last period, high K+ KRH, p<0.05): 375.2±92 pg/mg hypothalamus
NE release (Mean±S.E.) ([3]; 1 mM group, third incubation period (KRH alone)): 267.7±28 pg/mg hypothalamus
content of NE in the hypothalami at the end of the experiment ([3]; 10 mM deprenyl group, p<0.05): 281.3±91
NE release (Mean±S.E.) ([3]; 10 mM deprenyl, second incubation period, pretreatment 132.8±56, p<0.05): 799.9±141 pg/mg hypothalamus
NE release (Mean±S.E.) ([3]; 10 mM group, high K+ KRH, not statistically significant): 222.4±57 pg/mg hypothalamus
NE release (Mean±S.E.) ([3]; 10 mM group, third incubation period (KRH alone)): 159.8±41 pg/mg hypothalamus
content of 5-HIAA in the hypothalami at the end of the experiment ([4]; deprenyl treated groups compared to the control group, P<0.05): significantly low
release of 5-HIAA ([4]; hypothalami incubated with different doses of deprenyl (0.1, 1, 10 mM)): dose-dependant decrease
5-HT release ([5]; 0.1 mM deprenyl): 186.4±62
5-HT release on stimulation with high potassium KRH ([5]; 0.1 mM group): significant increase
5-HT release ([5]; 1 mM deprenyl): 438.4±85
content of 5-HT at the end of the experiment ([5]; 1 mM group compared to the control group): significantly reduced
5-HT release ([5]; 10 mM deprenyl): 670.3±199
content of 5-HT at the end of the experiment ([5]; 10 mM group compared to the control group): significantly reduced
5-HT release upon removal of deprenyl from the medium ([5]; third incubation period): declined rapidly
animals that came to heat ([6]; higher dose 0.75 mg/kg body weight): 86%
animals that came to heat ([6]; low dose 0.5 mg/kg body weight): Fifty
carcinogen-induced mammary tumor growth [7]: inhibits carcinogen-induced mammary tumor growth
restoration of heat and the estrous cycle (old acyclic rats): restore heat and the estrous cycle

GnRH: hypothalamic hormone called gonadotropin-releasing hormone (QHWSYGLRPG; ends and bridges not checked; UniProt P01148 24-33, looked up)
induction of heat (greyhound bitches): unable to induce heat
